Data as given in patent publication US20220160849A1, “CANCER VACCINE FORMULATION” (MIE UNIVERSITY, priority 2019, published 2022).

Test system: mouse melanoma B16F10 cell line expressing TRP2, TRP1, and gp100
Assay: Mouse tumor growth test, mouse melanoma B16F10
Type: in vivo, C57BL/6 mouse
Method: A mouse fibrosarcoma CMS5a cell line expressing mERK2, a mouse colorectal cancer cell CT26 cell line expressing AH1 and gp70, or a mouse melanoma B16F10 cell line expressing TRP2, TRP1, and gp100 was subcutaneously transplanted. The CMS5a cell line and the CT26 cell line were each subcutaneously transplanted in an amount of 1×10^6 cultured cells/100 μL/individual to each BALB/c mouse (female: body weight: 15 to 25 g). The B16F10 cell line was subcutaneously transplanted in an amount of […] cultured cells/100 μL/individual to each C57BL/6 mouse (female; body weight: 15 to 25 g). Then, tumor volumes were measured over time.
Each sample of Table 17 was subcutaneously administered with the frequency described in Table 17 to the mouse melanoma B16F10-bearing mice prepared by the method described in Example 5 to conduct a mouse tumor growth test.
Each sample of Table 20 was subcutaneously administered with the frequency described in Table 20 to the mouse melanoma B16F10-bearing mice prepared by the method described in Example 5 to conduct a mouse tumor growth test.
Each sample of Table 21 was subcutaneously administered with the frequency described in Table 21 to the mouse melanoma B16F10-bearing mice prepared by the method described in Example 5 to conduct a mouse tumor growth test.
Each sample of Table 22 was subcutaneously administered with the frequency described in Table 22 to the mouse melanoma B16F10-bearing mice prepared by the method described in Example 5 to conduct a mouse tumor growth test.
Each sample of Table 23 was subcutaneously administered with the frequency described in Table 23 to the mouse melanoma B16F10-bearing mice prepared by the method described in Example 5 to conduct a mouse tumor growth test.

[1] = Example 7-4, FIG. 23, adjuvant (Sting 0.015 mg, R848 0.05 mg) with 99k HA-C6-Chol-42% / TRP2TRP1gp100-6Y 0.05 mg s.c. day 10, 14, 17, 20

CCOCc1nc2c(N)nc3ccccc3c2n1CC(C)(C)O [R848]
tumor growth suppressive effect (tumor volume) [1]: high tumor growth suppressive effect

Nc1nc2c(ncn2C2OC3COP(=O)(S)OC4C(COP(=O)(S)OC2C3O)OC(n2cnc3c(N)ncnc32)C4O)c(=O)[nH]1 (stereo not drawn) [Sting, 2′3′-cGAM(PS)2(Rp/Sp)]
tumor growth suppressive effect (tumor volume) [1]: high tumor growth suppressive effect

polyIC
tumor growth suppressive effect (tumor volume) (Example 7-3, FIG. 22, adjuvant 0.05 mg with 99k HA-C6-Chol-42% / TRP2TRP1gp100-6Y 0.05 mg s.c. day 10, 14, 17, 21): high tumor growth suppressive effect
